ChEMBL document CHEMBL1201862, “PubChem BioAssay data set” (2004)
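Five concentrations, 48 hours, 96-well plates. Abbreviation: GI50, concentration required for 50% inhibition of growth.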 Active and inactive are the calls of the source. No stated cut-off is given here; in the data, active = GI50 up to about 1.1 µM and inactive = higher.

Tests used:
Assay in all cases: NCI-60 cell line screen, 48 h
M14 = test system: M14
HL-60 = test system: HL-60
OVCAR-3 = test system: OVCAR-3
CAKI-1 = test system: CAKI-1
RXF 393 = test system: RXF 393
786-0 = test system: 786-0
SR = test system: SR
SN12C = test system: SN12C
NCI-H226 = test system: NCI-H226
UACC-257 = test system: UACC-257
K562 = test system: K562
EKVX = test system: EKVX
COLO 205 = test system: COLO 205
Malme-3M = test system: Malme-3M
MOLT-4 = test system: MOLT-4
NCI-H23 = test system: NCI-H23
MDA-N = test system: MDA-N
ACHN = test system: ACHN
DU-145 = test system: DU-145
A549 = test system: A549

Measured: GI50

O=C1/C(=C/c2ccccc2)CN(C(=O)/C=C/c2ccccc2)C/C1=C\c1ccccc1
inactive: M14 3.63 µM | HL-60 4.44 µM | OVCAR-3 7.13 µM | CAKI-1 23.7 µM | RXF 393 15.6 µM | 786-0 4.09 µM | SR 1.3 µM | SN12C 5.43 µM | NCI-H226 18.8 µM | UACC-257 12.7 µM | K562 2.98 µM | EKVX 24.5 µM | COLO 205 4.92 µM | Malme-3M 16.1 µM | MOLT-4 3.53 µM | NCI-H23 12.4 µM | MDA-N 1.87 µM | ACHN 14.2 µM | DU-145 18.6 µM | A549 11.1 µM

NC(CC(=O)O)(Cc1ccccc1)C(=O)O (stereo not given)
inactive: M14 > 100 µM | HL-60 > 100 µM | OVCAR-3 > 100 µM | CAKI-1 > 100 µM | RXF 393 > 100 µM | 786-0 > 100 µM | SR > 100 µM | SN12C > 100 µM | NCI-H226 > 100 µM | UACC-257 > 100 µM | K562 > 100 µM | EKVX > 100 µM | COLO 205 > 100 µM | Malme-3M > 100 µM | MOLT-4 > 100 µM | NCI-H23 > 100 µM | MDA-N > 100 µM | ACHN > 100 µM | DU-145 > 100 µM | A549 > 100 µM

CN(C)CCNC(=O)c1cc(NC(=O)c2cc(NC(=O)CC/C=C3/[C@@H]4CC[C@H]3N=N4)cn2C)cn1C
inactive: M14 > 100 µM | HL-60 > 100 µM | OVCAR-3 > 100 µM | CAKI-1 > 100 µM | RXF 393 > 100 µM | 786-0 > 100 µM | SR > 100 µM | SN12C > 100 µM | NCI-H226 > 100 µM | UACC-257 > 100 µM | K562 > 100 µM | EKVX > 100 µM | COLO 205 > 100 µM | Malme-3M 70.3 µM | MOLT-4 > 100 µM | NCI-H23 > 100 µM | MDA-N > 100 µM | ACHN > 100 µM | DU-145 > 100 µM | A549 > 100 µM

Cc1cc(S(=O)(=O)NC(=C(C#N)C#N)[n+]2ccc(N(C)C)cc2)c([S-])cc1Cl
inactive: M14 > 100 µM | HL-60 > 100 µM | OVCAR-3 > 100 µM | CAKI-1 > 100 µM | RXF 393 > 100 µM | 786-0 > 100 µM | SR > 100 µM | SN12C > 100 µM | NCI-H226 > 100 µM | UACC-257 > 100 µM | K562 > 100 µM | EKVX > 100 µM | COLO 205 > 100 µM | Malme-3M > 100 µM | MOLT-4 > 100 µM | NCI-H23 > 100 µM | MDA-N > 100 µM | ACHN > 100 µM | DU-145 > 100 µM | A549 > 100 µM

N#Cc1c(C#N)c(-c2cccc([N+](=O)[O-])c2)n(-c2ccccc2)c1N
inactive: M14 > 100 µM | HL-60 > 100 µM | OVCAR-3 > 100 µM | CAKI-1 44.4 µM | RXF 393 41.7 µM | 786-0 51.5 µM | SR > 100 µM | SN12C > 100 µM | NCI-H226 18 µM | UACC-257 > 100 µM | K562 > 100 µM | EKVX > 100 µM | COLO 205 > 100 µM | Malme-3M > 100 µM | MOLT-4 > 100 µM | NCI-H23 > 100 µM | MDA-N > 100 µM | ACHN > 100 µM | DU-145 > 100 µM | A549 33.8 µM

CCN1CCN(c2nc3ccc([N+](=O)[O-])cc3nc2C(=O)c2ccccc2)CC1
inactive: M14 12.4 µM | HL-60 26.2 µM | OVCAR-3 16.8 µM | CAKI-1 16.7 µM | RXF 393 16.7 µM | 786-0 18.7 µM | SR 2.47 µM | SN12C 16.3 µM | NCI-H226 11.8 µM | UACC-257 20.1 µM | K562 6.31 µM | EKVX 16.1 µM | COLO 205 16.2 µM | Malme-3M 13.1 µM | MOLT-4 3.23 µM | NCI-H23 17.2 µM | MDA-N 18.7 µM | ACHN 15.8 µM | DU-145 18.8 µM | A549 17.6 µM

O=C1/C(=C/c2ccc3c(c2)OCO3)CCC1CN1CCOCC1 (stereo not given)
inactive: M14 4.22 µM | HL-60 1.44 µM | OVCAR-3 7.93 µM | CAKI-1 3.25 µM | RXF 393 11.4 µM | 786-0 5.42 µM | SR 1.65 µM | SN12C 4.06 µM | NCI-H226 16.7 µM | UACC-257 9.68 µM | K562 2.03 µM | EKVX 16.6 µM | COLO 205 9.73 µM | Malme-3M 7.31 µM | MOLT-4 1.95 µM | NCI-H23 8.83 µM | MDA-N 2.04 µM | ACHN 10.7 µM | DU-145 16 µM | A549 20.9 µM
